pIC50: −log10 of the molar value. “Also recorded” adds a separate entry of the source.
Experiments:
[1] = system: panel of human tumor cell lines; assay: Cytotoxic activity in a panel of human tumor cell lines as compared to paclitaxel
[2] = Water solubility / formulation in aqueous vehicles
[3] = system: Ln-Cap Prostate Carcinoma; settings: lncap cells
MCF-7 Breast Carcinoma = settings: mcf-7 cells
[4] = system: DU-145 Prostate Carcinoma; settings: du-145 cells
PC-3 Prostate Carcinoma = settings: pc-3 cells
[5] = system: Ovcar-3 Ovarian Carcinoma; settings: ovcar-3 cells
Molt-4 T-cell Leukemia = settings: molt-4 cells
[6] = system: PC-3 human prostate tumor; assay: In vivo efficacy against established PC-3 human prostate tumor in athymic nude mice
Description: Example 11. In vivo efficacy of Taxoid BP-193

[7] = background; cited from earlier work
[8] = Physician's Desk Reference (1994) 670, cited from earlier work

Structure (SMILES) | cytotoxic activity as compared to paclitaxel [1] | formulation in aqueous vehicles [2] | water solubility as compared with paclitaxel [2] | pIC50 [3] | pIC50 (MCF-7 Breast Carcinoma) | pIC50 [4] | pIC50 (PC-3 Prostate Carcinoma) | pIC50 [5] | pIC50 (Molt-4 T-cell Leukemia) | toxicity as compared with paclitaxel ([6]; PC-3 tumor-bearing mice) | tumor regression ([6]; all mice treated with BP-193) | anti-cellular proliferative activity, as measured by the reduction in tumor growth ([6]; established PC-3 tumor, vs vehicle and Taxol control) | side effects (hypersensitivity, myelosuppression, neuropathy, alopecia, cardio-toxicity) [7] | plasma concentration following infusion [8] | mean steady state volume of distribution ([8]; following infusion) [LIm^2]
CC(=O)O[C@H]1C(=O)[C@@]2(C)[C@H]([C@H](OC(=O)c3ccccc3)[C@]3(O)C[C@H](OC(=O)[C@H](OC(=O)OCC(O)CO)[C@@H](NC(=O)c4ccccc4)c4ccccc4)C(C)=C1C3(C)C)[C@]1(OC(C)=O)CO[C@@H]1C[C@@H]2O (stereo partly shown) [BP-171, 2'-(2",3"-dihydroxypropylcarbonoxy)paclitaxel] | cytotoxic activity equal to, or greater than, paclitaxel | readily formulated in standard aqueous vehicles | more water soluble than paclitaxel; also recorded: enhanced water solubility as compared with paclitaxel |  |  |  |  |  |  |  |  |  |  |  | 
CC(=O)O[C@H]1C(=O)[C@]2(C)[C@@H](OC(=O)OCC(O)CO)C[C@H]3OC[C@@]3(OC(C)=O)[C@H]2[C@H](OC(=O)c2ccccc2)[C@]2(O)C[C@H](OC(=O)[C@H](OC(=O)OCC(O)CO)[C@@H](NC(=O)c3ccccc3)c3ccccc3)C(C)=C1C2(C)C (stereo partly shown) [BP-177, 2',7-di(2",3"-dihydroxypropylcarbonoxy)paclitaxel] | comparable cytotoxic activity to paclitaxel | readily formulated in standard aqueous vehicles | more water soluble than paclitaxel | 7.57 | 6.47 | 7.04 | 7.24 | 7.30 | 6.15 |  |  |  |  |  | 
CC(=O)O[C@H]1C(=O)[C@@]2(C)[C@H]([C@H](OC(=O)c3ccccc3)[C@]3(O)C[C@H](OC(=O)[C@H](OC(=O)OCCC(O)CO)[C@@H](NC(=O)c4ccccc4)c4ccccc4)C(C)=C1C3(C)C)[C@]1(OC(C)=O)CO[C@@H]1C[C@@H]2O (stereo partly shown) [BP-193, 2'-(3^11,4"-dihydroxybutyl-carbonoxy)paclitaxel] | cytotoxic activity equal to, or greater than, paclitaxel | readily formulated in standard aqueous vehicles | more water soluble than paclitaxel | 7.71 | 8.06 | 8.85 | 5.81 | 7.26 | 8.40 | lacking the toxicity of paclitaxel | all tumors regressed to pretreatment levels | significant anti-cellular proliferative activity |  |  | 
CC(=O)O[C@H]1C(=O)[C@]2(C)[C@@H](OC(=O)OCC(O)CO)C[C@H]3OC[C@@]3(OC(C)=O)[C@H]2[C@H](OC(=O)c2ccccc2)[C@]2(O)C[C@H](OC(=O)[C@H](O)[C@@H](NC(=O)c3ccccc3)c3ccccc3)C(C)=C1C2(C)C (stereo partly shown) [BP-179, 7-(2",3"-dihydroxypropylcarbonoxy)paclitaxel] |  |  |  | 7.69 | 6.09 | 7.69 | 8.49 | 7.30 | 6.70 |  |  |  |  |  | 
CC(=O)O[C@H]1C(=O)[C@@]2(C)[C@H]([C@H](OC(=O)c3ccccc3)[C@]3(O)C[C@H](OC(=O)[C@H](O)[C@@H](NC(=O)c4ccccc4)c4ccccc4)C(C)=C1C3(C)C)[C@]1(OC(C)=O)CO[C@@H]1C[C@@H]2O [Taxol, paclitaxel, reference compound] |  |  |  | 8.82 | 8.30 | 8.67 |  | 8.65 |  |  |  |  | about 30 % of patients | rapidly declines following infusion | 42 to 162
CC(=O)O[C@H]1C(=O)[C@]2(C)[C@@H](OC(=O)NCCN3C(=S)N(c4ccc(C#N)c(C(F)(F)F)c4)C(=O)C3(C)C)C[C@H]3OC[C@@]3(OC(C)=O)[C@H]2[C@H](OC(=O)c2ccccc2)[C@]2(O)C[C@H](OC(=O)[C@H](O)[C@@H](NC(=O)c3ccccc3)c3ccccc3)C(C)=C1C2(C)C [BP-196, 7-[imidazolidinyl-5", 5"-dimethyl-4"-oxo-3"-[(4"'-cyano-3"'-trifluoromethyl)phenyl]-2"-thioxo-1"ethylcarbamoxy]paclitaxel] | comparable cytotoxic activity to paclitaxel | readily formulated in standard aqueous vehicles | more water soluble than paclitaxel |  |  |  |  |  |  |  |  |  |  |  | 
CC(=O)O[C@H]1C(=O)[C@@]2(C)[C@H]([C@H](OC(=O)c3ccccc3)[C@]3(O)C[C@H](OC(=O)[C@H](OC(=O)NCC(O)CO)[C@@H](NC(=O)c4ccccc4)c4ccccc4)C(C)=C1C3(C)C)[C@]1(OC(C)=O)CO[C@@H]1C[C@@H]2O (stereo partly shown) [BP-174, 2'-(2",3"-dihydroxypropylcarbamoxy) paclitaxel] | comparable cytotoxic activity to paclitaxel | readily formulated in standard aqueous vehicles | more water soluble than paclitaxel; also recorded: enhanced water solubility as compared with paclitaxel |  |  |  |  |  |  |  |  |  |  |  | 

Source: US5801191A, “Taxoids” (Biophysica Foundation, priority 1995, dated 1998)
